Reference: patent publication US10596153B2, “Antimicrobial agents and the method of synthesizing the antimicrobial agents” (Arkansas State University—Jonesboro, priority 2016, dated 2020)
Like-named read-outs stand apart in the source and are kept apart here.

Legend:
Test in all cases: Disk diffusion assay, zone of inhibition
Type in all cases: cell-based
[1] = test system: Bacillus subtilis ATCC 6633
Procedure: (§1) Bacteria were streaked onto Tryptic Soy Agar plates and incubated overnight at 35° C. Bacteria were suspended in sterile saline to the turbidity of a 0.5 McFarland standard then swabbed onto Mueller Hinton Agar plates to create lawns. Test compounds were dissolved in DMSO at a concentration of 0.1 M, and 10 μL of each were pipetted onto 6 mm diameter glass fiber disks placed on the lawns. Plates were incubated for 20-24 hours at 35° C. after which zones of inhibition (diameters in mm) were measured for each test compound.

[2] = test system: Staphylococcus aureus ATCC 25923
Procedure: as §1

[3] = test system: Pseudomonas aeruginosa ATCC 27853; conditions: N-arylamine derivatives; 10 μL of 0.1 M in DMSO on 6 mm disk; 20-24 hours at 35° C.; NA=No activity
Procedure: as §1

[4] = test system: Enterobacter aerogenes ATCC 13048; conditions: N-arylamine derivatives; 10 μL of 0.1 M in DMSO on 6 mm disk; 20-24 hours at 35° C.; NA=No activity
Procedure: as §1

[5] = ATCC6633, read-out: Zone of inhibition in mm, B s, azomethines, 10 μL of 0.1 M in DMSO on 6 mm disk, 20-24 hours at 35° C., NA=No activity
[6] = ATCC25923, read-out: Zone of inhibition in mm, S a
[7] = ATCC6633, N-arylamine derivatives, 10 μL of 0.1 M in DMSO on 6 mm disk, 20-24 hours at 35° C., NA=No activity, read-out: Zone of inhibition in mm, B s
[8] = ATCC6633, azomethines, 10 μL of 0.1 M in DMSO on 6 mm disk, 20-24 hours at 35° C., NA=No activity, read-out: Zone of inhibition in mm, B s
[9] = ATCC25923, N-arylamine derivatives, 10 μL of 0.1 M in DMSO on 6 mm disk, 20-24 hours at 35° C., NA=No activity, read-out: Zone of inhibition in mm, S a
[10] = ATCC6633, read-out: Zone of inhibition in mm, B s, N-arylamine derivatives, 10 μL of 0.1 M in DMSO on 6 mm disk, 20-24 hours at 35° C., NA=No activity

| SMILES | zone of inhibition at 100000 µM [1, 5] [mm] | zone of inhibition at 100000 µM [2, 6] [mm] | zone of inhibition at 100000 µM [1, 7] [mm] | zone of inhibition at 100000 µM [1, 8] [mm] | zone of inhibition at 100000 µM [2, 9] [mm] | zone of inhibition at 100000 µM [1, 10] [mm] | other results |
| --- | --- | --- | --- | --- | --- | --- | --- |
| Cc1ccccc1 [a] | 8 | 20 |  |  |  |  |  |
| Cc1ccc(Cl)cc1 [c] |  |  | 18 | 9 | 18 |  |  |
| COc1ccc(C)cc1 [g] | 10 | 15 |  |  |  | 14 |  |
| Cc1ccc(Oc2ccccc2)cc1 [h] |  |  | 12 |  | 11 |  |  |
| O=C(N[C@H](CO)[C@H](O)c1ccc([N+](=O)[O-])cc1)C(Cl)Cl [Chloramphenicol] |  |  |  |  |  |  | Zone of inhibition in mm, P a [3]: 8 mm; Zone of inhibition in mm, E a [4]: 28 mm |
| Cc1ccc(Br)cc1 [d] |  |  | 8 | 8 | 9 |  |  |
| Cc1ccc(F)cc1 [b] | 8 | 18 |  |  |  | 18 |  |
| Cc1ccc(C)cc1 [e] | 8 | 17 |  |  |  | 18 |  |
| Cc1ccc(C(C)(C)C)cc1 [f] |  |  | 14 | 8 | 8 |  |  |
